# Several values for one entry are separate records, joined by “and”; a condition that tells them apart may be missing. Identical values can stand only once.
# Assays:
# [1] = system: propiconazole resistant mutants of Chlorella species (PcZ-1); experiment: Growth (OD at 750 nm) of PcZ-1 mutant with and without 10 μM propiconazole, compared with wild type; type: cell-based, Chlorella sorokiniana; conditions: for Average % increase PcZ-1 + 10 uM PcZ / % increase PcZ-1 + 10 μM PcZ: PcZ-1 with 10 μM propiconazole vs wild type without propiconazole; for % increase PcZ-1 + 10 μM PcZ: individual replicates, listed as PcZ
# Experimental: (§1) Chlorella sorokiniana cells (Wild type) and propiconazole resistant mutants of Chlorella species (PcZ-1) were inoculated at 0.1-0.15 OD@750 nm (each set in triplicates). To verify the effect of methanol (propiconazole was dissolved in methanol), one set was treated with 0.1% methanol. One set of flasks in triplicate of Wild type and PcZ-1 mutants were inoculated with and without 10 μM propiconazole. After inoculation flasks were kept in 12 h light/12 hour dark cycles of white light in an incubator shaker at 100 rpm. The temperature was 28° C., 70% humidity and 2% ambient CO2. 3 mL sample was removed each day, to determine the Optical density (OD) of the culture at 750 nm. The results obtained are as illustrated in FIG. 1.
# FIG. 1 illustrates a graph of the growth comparison between wild type Chlorella sorokiniana and propiconazole resistant mutants of Chlorella species Chlorella sorokiniana mutant PcZ-1, in the presence of propiconazole, wherein A represents wild type Chlorella sorokiniana grown in the absence of propiconazole, B represents wild type Chlorella sorokiniana grown in the presence of 0.1% methanol, C represents wild type Chlorella sorokiniana grown in the presence of 10 μM propiconazole, D represents PcZ-1 grown in the absence of propiconazole, E represents PcZ-1 grown in the presence of 0.1% methanol, and F represents PcZ-1 grown in the presence of 10 μM propiconazole. […] The propiconazole resistant mutants of Chlorella species (PcZ-1) was not affected by the presence of propiconazole, and continued to grow.
# [2] = system: wild type Chlorella sorokiniana; experiment: Growth (OD at 750 nm) of wild type Chlorella sorokiniana in the presence of propiconazole; type: cell-based; conditions: 10 μM propiconazole; culture typically crashes after a few days
# Experimental: as §1
# FIG. 1 illustrates a graph of the growth comparison between wild type Chlorella sorokiniana and propiconazole resistant mutants of Chlorella species Chlorella sorokiniana mutant PcZ-1, in the presence of propiconazole, wherein A represents wild type Chlorella sorokiniana grown in the absence of propiconazole, B represents wild type Chlorella sorokiniana grown in the presence of 0.1% methanol, C represents wild type Chlorella sorokiniana grown in the presence of 10 μM propiconazole, D represents PcZ-1 grown in the absence of propiconazole, E represents PcZ-1 grown in the presence of 0.1% methanol, and F represents PcZ-1 grown in the presence of 10 μM propiconazole. […]
# grazers = conditions: general statement, no test described; cited from earlier work
smiles,measurement,setting,value
"CCCC1COC(Cn2cncn2)(c2ccc(Cl)cc2Cl)O1 (stereo not drawn) [propiconazole, Propiconazole]",Growth of PcZ-1 in the presence of propiconazole,"[1]; 10 μM propiconazole, continued to grow",not affected
same,Average % increase PcZ-1 + 10 uM PcZ,[1]; day 4,60.2%
same,% increase PcZ-1 + 10 μM PcZ,[1]; day 4,45.5% and 66.7% and 68.6%
same,Average % increase PcZ-1 + 10 uM PcZ,[1]; day 6,27.1%
same,% increase PcZ-1 + 10 μM PcZ,[1]; day 6,17.3% and 38.7% and 25.4%
same,Average % increase PcZ-1 + 10 uM PcZ,[1]; day 7,21.1%
same,% increase PcZ-1 + 10 μM PcZ,[1]; day 7,10.6% and 29.4% and 23.2%
same,Growth of the wild type Chlorella sorokiniana in the presence of propiconazole,[2],inhibited
same,Concentration at which propiconazole is a potent grazicide,grazers,≥ 0.5 ppm
